According to US7485640B2, “Imidazopyrazinones as GABA-A receptor anxiolytics” (Merck Sharp & Dohme Limited, priority 2002, dated 2009):

CN1CCn2c(-c3ccc(F)c(-c4ccc(F)cc4C#N)c3)cnc2C1=O [Example 22, 4,2′-Difluoro-5′-(7-methyl-8-oxo-5,6,7,8-tetrahydroimidazo[1,2-a]pyrazin-3-yl)biphenyl-2-carbonitrile]
melting point: 224 °C
